Values quoted from earlier work as cited in patent US20220226307A1, “INHIBITION OF BETA-2 NICOTINIC ACETYLCHOLINE RECEPTORS TO TREAT ALZHEIMER'S DISEASE PATHOLOGY” (INSTITUT PASTEUR, priority 2016, published 2022).

System: ventral hippocampus alpha-7 nAChR and alpha-4 beta-2 nAChR
Conditions: local infusion in ventral hippocampus (Felix and Levin, 1997; Levin et al., 2002)

Structure (SMILES) | working memory
Br.CO[C@H]1CC=C2CCN3CCC4=C(CC(=O)OC4)[C@]23C1 [DHβE, dihydro-β-erythroidine hydrobromide] | induces working memory impairments
CCN1C[C@]2(COC(=O)c3ccccc3N3C(=O)C[C@H](C)C3=O)CC[C@H](OC)[C@@]34[C@@H]5C[C@H]6[C@H](OC)[C@@H]5[C@](O)(C[C@@H]6OC)[C@@](O)([C@@H](OC)[C@H]23)[C@@H]14 [MLA, methyllycaconitine] | induces working memory impairments
